Experimental data published in US20240058344A1, “METHODS OF TREATING NEURODEGENERATIVE DISORDERS AND STAT3-LINKED CANCERS USING SUPPRESSORS OF ELECTRON LEAK” (Cornell University, priority 2020, published 2024).

What was measured:
[1] = tested on: primary astrocytes; test: Intracellular ATP levels in primary astrocytes; assay type: cell-based
Description: Antimycin A and myxothiazol were used as positive controls to inhibit mitochondrial respiration and ATP production. n=3 wells per condition. ***p<0.001 vs. vehicle, mixed-effects model with Dunnett's multiple comparisons test.

[2] = tested on: astrocytes; test: Oxygen consumption rates (mitochondrial respiration) in astrocytes; assay type: cell-based
Description: Oxygen consumption rates (OCR) and maximal consumption rates are shown for indicated S3QEL2 concentrations and time points. Antimycin and rotenone were used as positive controls to inhibit mitochondrial respiration. ***p<0.001 vs. vehicle, two-way repeated measures ANOVA with Dunnett's multiple comparisons test.

Row | Compound | Intracellular ATP levels [1] | Mitochondrial respiration (oxygen consumption rates, OCR) [2]
1 | CO/C(=C/C(N)=O)[C@H](C)[C@H](/C=C/c1csc(-c2csc([C@@H](C)/C=C/C=C/C(C)C)n2)n1)OC [myxothiazol] | greatly reduce | –
2 | antimycin A | greatly reduce | greatly reduce
3 | C=C(C)[C@H]1Cc2c(ccc3c2O[C@@H]2COc4cc(OC)c(OC)cc4[C@@H]2C3=O)O1 [rotenone] | – | greatly reduce
